The target in assay [1] is T1, Cytosolic phospholipase A2 (Homo sapiens, UniProt P47712).
T1 sequence (P47712 whole entry): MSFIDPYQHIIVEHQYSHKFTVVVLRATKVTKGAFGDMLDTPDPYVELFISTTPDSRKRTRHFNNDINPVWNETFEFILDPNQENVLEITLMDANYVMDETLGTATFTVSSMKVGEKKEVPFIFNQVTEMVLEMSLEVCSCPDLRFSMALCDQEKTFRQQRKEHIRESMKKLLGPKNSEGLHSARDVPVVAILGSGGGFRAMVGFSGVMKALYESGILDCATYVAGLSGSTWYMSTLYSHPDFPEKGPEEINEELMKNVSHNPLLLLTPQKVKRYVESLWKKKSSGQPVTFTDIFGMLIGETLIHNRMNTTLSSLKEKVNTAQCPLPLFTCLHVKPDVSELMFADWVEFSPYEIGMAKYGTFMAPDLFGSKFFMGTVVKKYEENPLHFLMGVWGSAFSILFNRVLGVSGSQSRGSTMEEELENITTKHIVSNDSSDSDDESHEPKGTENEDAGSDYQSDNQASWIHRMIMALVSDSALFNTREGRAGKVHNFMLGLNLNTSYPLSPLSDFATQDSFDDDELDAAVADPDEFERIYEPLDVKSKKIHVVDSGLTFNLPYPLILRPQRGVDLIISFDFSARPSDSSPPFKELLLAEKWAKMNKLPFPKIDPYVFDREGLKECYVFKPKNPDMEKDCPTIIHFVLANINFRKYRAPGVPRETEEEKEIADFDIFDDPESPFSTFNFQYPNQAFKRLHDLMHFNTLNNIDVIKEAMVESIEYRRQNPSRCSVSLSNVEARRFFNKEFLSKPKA
In words: Inhibition of cPLA2-alpha by GLU micelle assay.

A short description of assay [2]: Inhibition of LTB4 production in MC9 cell line. It counts as functional, cell-based. The following applies: Mus musculus.
Assay [3] can be described thus: Inhibition of PGF2-alpha production in MC9 cell line. It counts as functional, cell-based. The following applies: Mus musculus.
The test system of another assay is MC9. Put plainly: Inhibition of PGF2-alpha production in MC9 cell line in presence of arachidonic acid. Format: functional, cell-based. Particulars: Mus musculus.
A short description of assay [4]: Inhibition of ionophore-stimulated TXB2 production in rat whole blood. Format: functional, tissue-based.

Calls of active or inactive are those of the source. The calls are words filed in the database; no cut-off is given here.

One may read the IC50 as the concentration needed to halve the response being measured. The low end stands for greater potency, the high end for weaker potency. In assay [1], `O=C(O)c1ccc(OCCn2c(=O)on(C(c3ccccc3)c3ccccc3)c2=O)cc1` returned an IC50 greater than 50 µM.

With `O=C(O)c1ccc(OCC#CCn2c(=O)on(CC(c3ccccc3)c3ccccc3)c2=O)cc1`, 23 µM corresponded to half-maximal inhibition in assay [1] (IC50).

Consider `O=C(O)c1ccc(OCCn2c(=O)n(Cc3ccccc3)c(=O)n(CC(c3ccccc3)c3ccccc3)c2=O)cc1`, for which the IC50 in assay [1] worked out at 30 µM. The IC50 values of the last two molecules are within 1.5-fold of each other.

As to `O=C(O)c1ccc(OC/C=C/Cn2c(=O)n(Cc3ccccc3)c(=O)n(C(c3ccccc3)c3ccccc3)c2=O)cc1`, the IC50 in assay [1] came out at 1.3 µM; in assay [2] it was 0.5 µM; in assay [3] it was 0.8 µM; in assay [4], 5.2 µM. The result in the assay with MC9 was inactive.

Turning to `O=C(O)c1ccc(OCCn2c(=O)n(-c3ccccc3)c(=O)n(C(c3ccccc3)c3ccccc3)c2=O)cc1`, the IC50 in assay [1] is greater than 50 µM.

In assay [1], `CCCCn1c(=O)n(C/C=C/COc2ccc(C(=O)O)cc2)c(=O)n(C(c2ccccc2)c2ccccc2)c1=O` had a 50% inhibitory concentration (IC50) of 2.4 µM. In other words, the single-digit micromolar range.

As to `CCn1c(=O)n(C/C=C/COc2ccc(C(=O)O)cc2)c(=O)n(C(c2ccccc2)c2ccccc2)c1=O`, in assay [1], the IC50 stood at 1.6 µM.

In assay [1], `C=CCn1c(=O)n(C/C=C/COc2ccc(C(=O)O)cc2)c(=O)n(C(c2ccccc2)c2ccccc2)c1=O` registered an IC50 of 1.3 µM.

In turn, `O=C(O)c1ccc(OCCn2c(=O)on(CC(c3ccccc3)c3ccccc3)c2=O)cc1O` had an IC50 in assay [1] of 27 µM. Compared with the last molecule, the IC50 is about 21-fold higher.

With `O=C(O)c1ccc(OCCCn2c(=O)on(CC(c3ccccc3)c3ccccc3)c2=O)cc1`, the IC50 in assay [1] came out at 12.4 µM.

Molecule `O=C(O)c1ccc(OCCn2c(=O)on(CC(c3ccccc3)c3ccccc3)c2=O)cc1` yielded an IC50 in assay [1] of 6.7 µM.

`O=C(O)c1ccc(OCCCCn2c(=O)on(CC(c3ccccc3)c3ccccc3)c2=O)cc1`: in assay [1], the IC50 is greater than 50 µM.

Regarding `CCn1c(=O)n(CCOc2ccc(C(=O)O)cc2)c(=O)n(C(c2ccccc2)c2ccccc2)c1=O`, it took 7.5 µM to reach half-maximal inhibition in assay [1] (IC50). This lies in the single-digit micromolar range.

Turning to `O=C(O)c1cccc(OCCn2c(=O)on(CC(c3ccccc3)c3ccccc3)c2=O)c1`, in assay [1], the IC50 is greater than 50 µM.

In assay [1], `CCCCn1c(=O)n(CCOc2ccc(C(=O)O)cc2)c(=O)n(C(c2ccccc2)c2ccccc2)c1=O` displayed an IC50 of 5.6 µM.

In the case of `C=CCn1c(=O)n(CCOc2ccc(C(=O)O)cc2)c(=O)n(C(c2ccccc2)c2ccccc2)c1=O`, in assay [1], the IC50 was determined as 5 µM.

Molecule `O=C(O)c1ccc(OCCn2c(=O)on(C(Cc3ccccc3)Cc3ccccc3)c2=O)cc1` displayed an IC50 in assay [1] greater than 50 µM.

Take `O=C(O)c1ccc(OCCn2c(=O)n(Cc3ccccc3)c(=O)n(C(c3ccccc3)c3ccccc3)c2=O)cc1`: in assay [1], the IC50 came out at 3.5 µM.

Molecule `O=C(O)c1ccc(OC/C=C/Cn2c(=O)on(CC(c3ccccc3)c3ccccc3)c2=O)cc1` came in with an IC50 in assay [1] greater than 50 µM.

The record behind these values is ChEMBL document CHEMBL1148667, “1,2,4-Oxadiazolidin-3,5-diones and 1,3,5-triazin-2,4,6-triones as cytosolic phospholipase A2alpha inhibitors” (Bioorg Med Chem Lett, 2006).
